In patent publication US20220249454A1, “INHIBITORS OF MONOCARBOXYLATE TRANSPORTERS FOR CANCER IMMUNOTHERAPY” (NIROGY THERAPEUTICS, INC., priority 2021, published 2022):

system: panel of solid and haemotological tumor cell lines (e.g., Hs578t, SiHa, MDA-MB-231); assay: MTS cell proliferation assay (cytotoxicity); type: cell-based; conditions: Table 1 (Group 1), 72-96 hours, 10 mM lactate medium or RPMI 1640 medium, cell line not stated
Procedure: The anti-proliferation effect of MCT inhibition was investigated across a panel of solid and haemotological tumor cell lines. Cells were routinely cultured in their appropriate growth medium. On day 1, between 10,000-25,000 cells/well (e.g., Hs578t: 15,000 cells/well, SiHa: 10,000 cells/well, and MDA-MB-231: 25,000 cells/well) were plated into 96-well plates. 100 μL. of phosphate buffered saline solution was added to the external wells to prevent media evaporation. Plates were incubated in growth medium overnight at 37° C. in the presence of 5% CO2. On day 2, dry weight compound stocks were dissolved to a concentration of 10 mM in 100% DMSO. Compounds were further diluted in the assay medium; 10 mM lactate medium (without glucose, pyruvate, and glutamine) or RPMI 1640 medium (without pyruvate and glutamine) to generate a final dose range of 1 nM to 10 μM. Growth medium in the 96-well plate was replaced with the assay medium (10 mM lactate medium or RPMI medium or appropriate medium), and compounds were added to each well in the plate at different concentrations via serial dilution or pre-prepared solutions in assay medium. Plates were then incubated at 37° C. in the presence of 5% CO2 for a further 72-96 hours. On day 2-5, assay media was changed to 100 uL of DMEM/F12 and 20 μL of CellTiter 96 AQ MTS reagent was added to each well and the plate was returned to the incubator for 1-2 hours. MTS is bioreduced by NADPH or NADH produced by dehydrogenase enzymes in metabolically active cells into a coloured formazan product that is soluble in tissue culture medium. The amount of coloured formazan product is directly proportional to the number of living cells in culture. The absorbance of the plates was read on a Spectramax M5e plate reader using […] measurement wavelength. Dose response curves were plotted and IC50 values were calculated using GraphPad Prism. The IC50 value is equivalent to the concentration of compound that causes 50% inhibition of growth calculated from the compound treated signal to the vehicle treated signal.
Cytotoxicity of selected compounds is listed in Table 1, where IC50: A=<1 uM; B=1-10 uM; C=>10 uM; and NT=Not Tested.

| SMILES | IC50 |
| --- | --- |
| COc1ccccc1CN(C)c1cc2oc(=O)c(C(=O)O)cc2s1 [Compound 1.022, 2-[(2-Methoxy-benzyl)-methyl-amino]-5-oxo-5H-thieno[3,2-b]pyran-6-carboxylic acid] | < 1 µM |
| CN(Cc1cccs1)c1cc2oc(=O)c(C(=O)O)cc2s1 [Compound 1.014, 2-(methyl(thiophen-2-ylmethyl)amino)-5-oxo-5H-thieno[3,2-b]pyran-6-carboxylic acid] | < 1 µM |
| CN(CC1CCCCC1)c1cc2oc(=O)c(C(=O)O)cc2s1 [Compound 1.005, 2-((cyclohexylmethyl)(methyl)amino)-5-oxo-5H-thieno[3,2-b]pyran-6-carboxylic acid] | < 1 µM |
| O=C(O)c1cc2sccc2oc1=O [Compound 1.029, 5-oxo-5H-thieno[3,2-b]pyran-6-carboxylic acid] | 1 to 10 µM |
| COc1cccc(CN(C)c2cc3oc(=O)c(C(=O)O)cc3s2)c1 [Compound 1.004, 2-((3-methoxybenzyl)(methyl)amino)-5-oxo-5H-thieno[3,2-b]pyran-6-carboxylic acid] | < 1 µM |
| CN1CCC(CN(C)c2cc3oc(=O)c(C(=O)O)cc3s2)CC1 [Compound 1.012, 2-(methyl((1-methylpiperidin-4-yl)methyl)amino)-5-oxo-5H-thieno[3,2-b]pyran-6-carboxylic acid] | < 1 µM |
| CN(C(=O)c1ccc(C(F)(F)F)cc1)c1cc2oc(=O)c(C(=O)O)cc2s1 [Compound 1.020, 2-[Methyl-(4-trifluoromethyl-benzoyl)-amino]-5-oxo-5H-thieno[3,2-b]pyran-6-carboxylic acid] | < 1 µM |
| COc1cccc(S(=O)(=O)N(C)c2cc3oc(=O)c(C(=O)O)cc3s2)c1 [Compound 1.024, 2-[(3-Methoxy-benzenesulfonyl)-methyl-amino]-5-oxo-5H-thieno[3,2-b]pyran-6-carboxylic acid] | < 1 µM |
| CN(Cc1cccnc1)c1cc2oc(=O)c(C(=O)O)cc2s1 [Compound 1.013, 2-(methyl(pyridin-3-ylmethyl)amino)-5-oxo-5H-thieno[3,2-b]pyran-6-carboxylic acid] | < 1 µM |

same assay, conditions: Table 2 (Group 2), 72-96 hours, 10 mM lactate medium or RPMI 1640 medium, cell line not stated

| SMILES | IC50 |
| --- | --- |
| CN(C(=O)Nc1ccc(F)cc1F)c1cc2oc(=O)c(C(=O)O)cc2s1 [Compound 2.037, 2-(3-(2,4-difluorophenyl)-1-methylureido)-5-oxo-5H-thieno[3,2-b]pyran-6-carboxylic acid] | < 1 µM |
| CN(C(=O)Nc1cccc(C(F)(F)F)c1)c1cc2oc(=O)c(C(=O)O)cc2s1 [Compound 2.011, 2-(1-methyl-3-(3-(trifluoromethyl)phenyl)ureido)-5-oxo-5H-thieno[3,2-b]pyran-6-carboxylic acid] | < 1 µM |
| CN(C(=O)Nc1ccc(F)c(F)c1)c1cc2oc(=O)c(C(=O)O)cc2s1 [Compound 2.040, 2-(3-(3,4-difluorophenyl)-1-methylureido)-5-oxo-5H-thieno[3,2-b]pyran-6-carboxylic acid] | < 1 µM |
| COc1ccc(NC(=O)N(C)c2cc3oc(=O)c(C(=O)O)cc3s2)cc1C [Compound 2.026, 2-(3-(4-methoxy-3-methylphenyl)-1-methylureido)-5-oxo-5H-thieno[3,2-b]pyran-6-carboxylic acid] | < 1 µM |
| CN(C(=O)N1CCCC1)c1cc2oc(=O)c(C(=O)O)cc2s1 [Compound 2.046, 2-(N-methylpyrrolidine-1-carboxamido)-5-oxo-5H-thieno[3,2-b]pyran-6-carboxylic acid] | < 1 µM |
| CN(C(=O)Nc1cc(C(F)(F)F)cc(C(F)(F)F)c1)c1cc2oc(=O)c(C(=O)O)cc2s1 [Compound 2.042, 2-(3-(3,5-bis(trifluoromethyl)phenyl)-1-methylureido)-5-oxo-5H-thieno[3,2-b]pyran-6-carboxylic acid] | < 1 µM |
| CN(C(=O)Nc1ccc(Cl)cc1)c1cc2oc(=O)c(C(=O)O)cc2s1 [Compound 2.004, 2-(3-(4-chlorophenyl)-1-methylureido)-5-oxo-5H-thieno[3,2-b]pyran-6-carboxylic acid] | < 1 µM |
| CN(C(=O)c1ccc2cc(F)ccc2c1)c1cc2oc(=O)c(C(=O)O)cc2s1 [Compound 2.029, 2-(6-fluoro-N-methyl-2-naphthamido)-5-oxo-5H-thieno[3,2-b]pyran-6-carboxylic acid] | < 1 µM |
| CN(C(=O)Nc1ccccc1Cl)c1cc2oc(=O)c(C(=O)O)cc2s1 [Compound 2.001, 2-(3-(2-chlorophenyl)-1-methylureido)-5-oxo-5H-thieno[3,2-b]pyran-6-carboxylic acid] | < 1 µM |
| CCOc1ccc(NC(=O)N(C)c2cc3oc(=O)c(C(=O)O)cc3s2)cc1 [Compound 2.021, 2-(3-(4-ethoxyphenyl)-1-methylureido)-5-oxo-5H-thieno[3,2-b]pyran-6-carboxylic acid] | < 1 µM |
| CN(C(=O)N1CCOCC1)c1cc2oc(=O)c(C(=O)O)cc2s1 [Compound 2.044, 2-(N-methylmorpholine-4-carboxamido)-5-oxo-5H-thieno[3,2-b]pyran-6-carboxylic acid] | < 1 µM |
| CN(C(=O)Nc1nc(C(C)(C)C)cs1)c1cc2oc(=O)c(C(=O)O)cc2s1 [Compound 2.048, 2-(3-(4-(tert-butyl)thiazol-2-yl)-1-methylureido)-5-oxo-5H-thieno[3,2-b]pyran-6-carboxylic acid] | < 1 µM |
| COc1ccc(NC(=O)N(C)c2cc3oc(=O)c(C(=O)O)cc3s2)c(OC)c1 [Compound 2.014, 2-(3-(2,4-dimethoxyphenyl)-1-methylureido)-5-oxo-5H-thieno[3,2-b]pyran-6-carboxylic acid] | < 1 µM |
| COc1cccc(NC(=O)N(C)c2cc3oc(=O)c(C(=O)O)cc3s2)c1 [Compound 2.003, 2-(3-(3-methoxyphenyl)-1-methylureido)-5-oxo-5H-thieno[3,2-b]pyran-6-carboxylic acid] | < 1 µM |
| Cc1ccccc1NC(=O)N(C)c1cc2oc(=O)c(C(=O)O)cc2s1 [Compound 2.035, 2-(1-methyl-3-(o-tolyl)ureido)-5-oxo-5H-thieno[3,2-b]pyran-6-carboxylic acid] | < 1 µM |
| CN(Cc1cccc(-c2ccc(F)cc2)c1)c1cc2oc(=O)c(C(=O)O)cc2s1 [Compound 2.050, 2-(((4′-fluoro-[1,1′-biphenyl]-3-yl)methyl)(methyl)amino)-5-oxo-5H-thieno[3,2-b]pyran-6-carboxylic acid] | < 1 µM |
| CN(C(=O)c1cccc(-c2ccccc2)c1)c1cc2oc(=O)c(C(=O)O)cc2s1 [Compound 2.030, 2-(N-methyl-[1,1′-biphenyl]-3-carboxamido)-5-oxo-5H-thieno[3,2-b]pyran-6-carboxylic acid] | < 1 µM |
| CN(C(=O)Nc1ccc(F)cc1)c1cc2oc(=O)c(C(=O)O)cc2s1 [Compound 2.005, 2-(3-(4-fluorophenyl)-1-methylureido)-5-oxo-5H-thieno[3,2-b]pyran-6-carboxylic acid] | < 1 µM |
| CN(C(=O)Nc1cccc(F)c1)c1cc2oc(=O)c(C(=O)O)cc2s1 [Compound 2.025, 2-(3-(3-fluorophenyl)-1-methylureido)-5-oxo-5H-thieno[3,2-b]pyran-6-carboxylic acid] | < 1 µM |
| COc1ccc(NC(=O)N(C)c2cc3oc(=O)c(C(=O)O)cc3s2)cc1OC [Compound 2.006, 2-(3-(3,4-dimethoxyphenyl)-1-methylureido)-5-oxo-5H-thieno[3,2-b]pyran-6-carboxylic acid] | < 1 µM |
| COc1ccccc1NC(=O)N(C)c1cc2oc(=O)c(C(=O)O)cc2s1 [Compound 2.002, 2-(3-(2-methoxyphenyl)-1-methylureido)-5-oxo-5H-thieno[3,2-b]pyran-6-carboxylic acid] | < 1 µM |
| CCOc1cccc(NC(=O)N(C)c2cc3oc(=O)c(C(=O)O)cc3s2)c1 [Compound 2.009, 2-(3-(3-ethoxyphenyl)-1-methylureido)-5-oxo-5H-thieno[3,2-b]pyran-6-carboxylic acid] | < 1 µM |
| CN(C(=O)Nc1cccc(Cl)c1)c1cc2oc(=O)c(C(=O)O)cc2s1 [Compound 2.034, 2-(3-(3-chlorophenyl)-1-methylureido)-5-oxo-5H-thieno[3,2-b]pyran-6-carboxylic acid] | < 1 µM |
| COc1cc(NC(=O)N(C)c2cc3oc(=O)c(C(=O)O)cc3s2)cc(OC)c1 [Compound 2.022, 2-(3-(3,5-dimethoxyphenyl)-1-methylureido)-5-oxo-5H-thieno[3,2-b]pyran-6-carboxylic acid] | < 1 µM |
| COc1cnccc1NC(=O)N(C)c1cc2oc(=O)c(C(=O)O)cc2s1 [Compound 2.047, 2-(3-(3-methoxypyridin-4-yl)-1-methylureido)-5-oxo-5H-thieno[3,2-b]pyran-6-carboxylic acid] | < 1 µM |
